Results published in publication PMC6849653, “Volasertib preclinical activity in high-risk hepatoblastoma” (Oncotarget, 2019).
Where a name gives a salt, the structure may show the parent alone.

Columns and labels:
HB-214 = test: 60-agent chemical screen, cell viability (Cell-Titer Glo), HB-214; type: cell-based; conditions: Homo sapiens; 60-agent screen, 72 hours; a value of 10,000 indicates that the drug did not inhibit viability; read-out: absolute IC50, HB-214;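 further: viability read as luminescence once Cell-Titer Glo 2.0 reagent was added to drug-treated cells in 384-well plates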
Protocol: (§1) On day 0, cells were trypsinized and plated into a white walled 384-well plate containing pre-diluted known concentrations of various drugs. After 72 hours, an equal volume of Cell-Titer Glo 2.0 (G9243, Promega) was added to each well, incubated at room temperature while rocking in the dark for 15 minutes, followed by luminescence acquisition with a BioTek Synergy HT plate reader (BioTek, Winooski, VT).

HepG2 = test: 60-agent chemical screen, cell viability (Cell-Titer Glo), HepG2; type: cell-based; conditions: Homo sapiens, 60-agent screen, 72 hours, a value of 10,000 indicates that the drug did not inhibit viability, read-out: absolute IC50, HepG2;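 further: luminescence read-out in 384-well plates, with cells plated directly onto drug dilutions of known concentration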
Protocol: as §1

Huh-6 = test: 60-agent chemical screen, cell viability (Cell-Titer Glo), Huh-6; type: cell-based; conditions: Homo sapiens, 60-agent screen, 72 hours, a value of 10,000 indicates that the drug did not inhibit viability, read-out: absolute IC50, Huh-6
Protocol: as §1

normal human hepatocytes = test: 60-agent chemical screen, cell viability (Cell-Titer Glo), hepatocytes; type: cell-based; conditions: Hepatocyte, 60-agent screen, 72 hours, a value of 10,000 indicates that the drug did not inhibit viability, read-out: absolute IC50, Hepatocytes;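 further: cells were plated onto pre-diluted drug concentrations in 384-well plates, and viability was read after 72 h as CellTiter-Glo 2.0 luminescence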
Protocol: as §1

[1] = test system: hepatoblastoma cell lines HepG2, Huh-6 and HB-214 versus hepatocytes
Protocol: as §1

[2] = cited from earlier work

SMILES | IC50 (HepG2) | IC50 (Huh-6) | Ratio normal/cancer: average ratio of the IC50 in hepatocytes to the IC50 in hepatoblastoma cell lines [1] | IC50 (HB-214) | IC50 (normal human hepatocytes) | side effects ([2]; irinotecan) | known toxicity ([2]; in vivo)
C[C@@H](Oc1cc(-c2cnn(C3CCNCC3)c2)cnc1N)c1c(Cl)ccc(F)c1Cl [crizotinib] | 2.17 µM | 4.42 µM |  | 7.64 µM | 2.16 µM |  | 
O=C1NC(=O)C(c2cnc3ccccn23)=C1c1cn2c3c(cc(F)cc13)CN(C(=O)N1CCCCC1)CC2 [LY2090314] | > 10 µM | > 10 µM |  | > 10 µM | 0.837 µM |  | 
CN(C(=O)c1ccc(F)cc1C(F)(F)F)C1CCN(c2nnc(-c3ccnn3C)c3ccccc23)CC1 [LY2940680] | > 10 µM | > 10 µM |  | > 10 µM | > 10 µM |  | 
Cc1[nH]c2ccccc2c1CCNCc1ccc(/C=C/C(=O)NO)cc1 [panobinostat] | 0.08 µM | 1.14 µM |  | 0.25 µM | 0.039 µM |  | 
Cc1ccc(-c2cc(C(F)(F)F)nn2-c2ccc(S(N)(=O)=O)cc2)cc1 [celecoxib] | > 10 µM | > 10 µM |  | > 10 µM | > 10 µM |  | 
Cc1ccc(Nc2nccc(N(C)c3ccc4c(C)n(C)nc4c3)n2)cc1S(N)(=O)=O [pazopanib] | > 10 µM | > 10 µM |  | > 10 µM |  |  | 
Nc1nc(O)c2ncn(COC(CO)CO)c2n1 [ganciclovir] | > 10 µM | > 10 µM |  | > 10 µM | > 10 µM |  | 
CN1CCc2c(c3ccccc3n2Cc2ccc(C(=O)NO)cc2)C1 [tubastatin A] | > 10 µM | > 10 µM |  | > 10 µM | > 10 µM |  | 
C[C@@H](Oc1ccc2[nH]nc(/C=C/c3cnn(CCO)c3)c2c1)c1c(Cl)cncc1Cl [LY2874455] | > 10 µM | > 10 µM |  | > 10 µM | 2.17 µM |  | 
COc1ccc(C[C@@H](C)[C@@H](C)Cc2ccc(OC)c(OC)c2)cc1OC [EM1421] | > 10 µM | > 10 µM |  | > 10 µM | > 10 µM |  | 
O=c1ncccn1[C@@H]1O[C@H](CO)[C@@H](O)[C@H]1O [zebularine] | > 10 µM | > 10 µM |  | > 10 µM | > 10 µM |  | 
COc1cccc(OCCCN)c1-c1cc(Nc2cnc(C#N)cn2)n[nH]1 [LY2606368] | 5.4 µM | 5.27 µM |  | 4.7 µM | > 10 µM |  | 
Nc1ccccc1NC(=O)c1ccc(CNC(=O)OCc2cccnc2)cc1 [entinostat] | 0.392 µM | > 10 µM |  | 1.49 µM | 0.217 µM |  | 
CC(=O)c1c(C)c2cnc(Nc3ccc(N4CCNCC4)cn3)nc2n(C2CCCC2)c1=O [PD 0332991] | 6.07 µM | > 10 µM |  | 1.89 µM | > 10 µM |  | 
COc1cc2nc(N3CCCN(C)CC3)nc(NC3CCN(Cc4ccccc4)CC3)c2cc1OC [BIX 01294] | 2.9 µM | 2.81 µM |  | 1.72 µM | 2.04 µM |  | 
CO[C@H]1C[C@@H]2CC[C@@H](C)[C@@](O)(O2)C(=O)C(=O)N2CCCC[C@H]2C(=O)O[C@H]([C@H](C)C[C@@H]2CC[C@@H](O)[C@H](OC)C2)CC(=O)[C@H](C)/C=C(\C)[C@@H](O)[C@@H](OC)C(=O)[C@H](C)C[C@H](C)/C=C/C=C/C=C/1C [sirolimus] | > 10 µM | > 10 µM |  | > 10 µM | > 10 µM |  | 
CCOC(=O)CCNc1cc(N2CCc3ccccc3CC2)nc(-c2ccccn2)n1 [GSK-J4 HCl] | > 10 µM | 4.8 µM |  | > 10 µM | > 10 µM |  | 

SMILES | IC50 (HepG2) | IC50 (Huh-6) | Ratio normal/cancer: average ratio of the IC50 in hepatocytes to the IC50 in hepatoblastoma cell lines [1] | IC50 (HB-214) | IC50 (normal human hepatocytes) | side effects ([2]; irinotecan) | known toxicity ([2]; in vivo)
Cc1nc(Nc2ncc(C(=O)Nc3c(C)cccc3Cl)s2)cc(N2CCN(CCO)CC2)n1 [dasatinib] | 5.02 µM | 2.62 µM |  | > 10 µM | > 10 µM |  | 
CC(C)(C)Cn1c(N)nc2ccc(-c3[nH]c(C(C)(C)C)nc3-c3ccc(F)cc3)nc21 [LY2228820] | > 10 µM | > 10 µM |  | > 10 µM | 0.076 µM |  | 
C=CCn1c(=O)c2cnc(Nc3ccc(N4CCN(C)CC4)cc3)nc2n1-c1cccc(C(C)(C)O)n1 [MK-1775] | > 10 µM | > 10 µM |  | 1.18 µM | > 10 µM |  | 
CCc1c2c(nc3ccc(OC(=O)N4CCC(N5CCCCC5)CC4)cc13)-c1cc3c(c(=O)n1C2)COC(=O)[C@]3(O)CC [irinotecan] |  |  |  |  |  | diarrhea and neutropenia | 
O=C(O)c1ccc2c(c1)nc(Nc1cccc(Cl)c1)c1ccncc12 [CX-4945] | 6.2 µM | 4.81 µM |  | > 10 µM | > 10 µM |  | 
CN(C)C(=N)N=C(N)N [metformin HCL] | > 10 µM | > 10 µM |  | > 10 µM | > 10 µM |  | 
CCCc1c(OCCCOc2cc(O)c(-c3ccc(F)cc3)cc2CC)cccc1Oc1ccccc1C(=O)O [LY293111] | > 10 µM | > 10 µM |  | > 10 µM | > 10 µM |  | 
CS(=O)(=O)c1cccc(CNc2nc(Nc3ccc4c(c3)CCC(=O)N4)ncc2C(F)(F)F)c1 [PF 573228] |  |  | 1 |  |  |  | 
C=C[C@@]1(C)CC(=O)[C@]2(O)[C@@]3(C)[C@@H](O)CCC(C)(C)[C@@H]3[C@H](O)[C@H](OC(C)=O)[C@@]2(C)O1 [forskolin] | > 10 µM | > 10 µM |  | > 10 µM | > 10 µM |  | 
Nc1nc2[nH]cc(CCc3ccc(C(=O)N[C@@H](CCC(=O)O)C(=O)O)cc3)c2c(=O)[nH]1 [pemetrexed] | > 10 µM | > 10 µM |  | > 10 µM | > 10 µM |  | 
CC(C)n1c(/C=C/C(O)CC(O)CC(=O)O)c(-c2ccc(F)cc2)c2ccccc21 (stereo not drawn) [fluvastatin] | > 10 µM | 4.44 µM |  | > 10 µM |  |  | 
CCc1cnn2c(NCc3ccc[n+]([O-])c3)cc(N3CCCC[C@H]3CCO)nc12 [dinaciclib] |  |  |  |  | 0.001 µM |  | 
Cc1ccc(S(=O)(=O)/C=C/C#N)cc1 [BAY-11-7082] |  |  | 1 |  |  |  | 
C/C=C(/C)C(=O)O[C@H]1C(C)=C2[C@H]([C@@H]1OC(=O)CCCCCCC)[C@@](C)(OC(C)=O)C[C@H](OC(=O)CCC)[C@@]1(O)[C@H]2OC(=O)[C@@]1(C)O [thapsigargin] | 0.021 µM | 0.28 µM |  | 0.16 µM | 0.519 µM |  | significant renal toxicity
Cc1cc(Nc2cc(N3CCN(C)CC3)nc(Sc3ccc(NC(=O)C4CC4)cc3)n2)[nH]n1 [tozasertib] | > 10 µM | 3.26 µM |  | 1.48 µM | > 10 µM |  | 
CC(C)n1nc(-c2ccc3oc(N)nc3c2)c2c(N)ncnc21 [INK 128] | 0.126 µM | 2.43 µM |  | 0.001 µM | 0.007 µM |  | 
N#CC[C@H](C1CCCC1)n1cc(-c2ncnc3[nH]ccc23)cn1 [ruxolitinib] | > 10 µM | > 10 µM |  | > 10 µM | > 10 µM |  | 

Continued, in another order:

IC50 (HepG2) | IC50 (Huh-6) | Ratio normal/cancer: average ratio of the IC50 in hepatocytes to the IC50 in hepatoblastoma cell lines [1] | SMILES | IC50 (HB-214) | IC50 (normal human hepatocytes) | side effects ([2]; irinotecan) | known toxicity ([2]; in vivo)
> 10 µM | > 10 µM |  | CN[C@@H](C)C(=O)N[C@H](C(=O)N1CCC[C@H]1c1nc(C(=O)c2ccc(F)cc2)cs1)C1CCCCC1 [LCL161] | > 10 µM | > 10 µM |  | 
0.124 µM | 4.47 µM |  | COCCn1c2c([n+](Cc3cnccn3)c1C)C(=O)c1ccccc1C2=O [YM155] | 0.26 µM | 0.034 µM |  | 
> 10 µM | > 10 µM |  | Cc1cc(-c2ncc(CC(=O)Nc3ccc(-c4cnccn4)cn3)cc2C)ccn1 [LGK974] | > 10 µM | 7.72 µM |  | 
0.478 µM | > 10 µM |  | Cn1c(=O)n(-c2ccc(C(C)(C)C#N)cc2)c2c3cc(-c4cnc5ccccc5c4)ccc3ncc21 [BEZ235] | 0.61 µM | 0.048 µM |  | 
> 10 µM | > 10 µM |  | CNC(=O)CN1CCC(Oc2cc3c(Nc4cccc(Cl)c4F)ncnc3cc2OC)CC1 [AZD8931] | > 10 µM | 1.45 µM |  | 
> 10 µM | > 10 µM |  | CC1(C)CCC(c2ccc(Cl)cc2)=C(CN2CCN(c3ccc(C(=O)NS(=O)(=O)c4ccc(N[C@H](CCN5CCOCC5)CSc5ccccc5)c(S(=O)(=O)C(F)(F)F)c4)cc3)CC2)C1 [ABT-263] | > 10 µM | > 10 µM |  | 
 |  | 4 | Clc1ccc(N/N=C(\c2ccccc2)c2ccccn2)nc1 [JIB-04] |  |  |  | 
> 10 µM | > 10 µM |  | C[C@]1(O)C[C@@H](c2nc(-c3ccc4ccc(-c5ccccc5)nc4c3)c3c(N)nccn32)C1 [OSI-906] | 1.8 µM | 5.9 µM |  | 
1.72 µM | 4.62 µM |  | CN1CCC(CNc2ccc3ncc(-c4cccc(OC(F)(F)F)c4)n3n2)CC1 [SGI-1776] | 1.53 µM | 0.233 µM |  | 
> 10 µM | > 10 µM |  | CCOc1cc(C(C)(C)C)ccc1C1=N[C@@](C)(c2ccc(Cl)cc2)[C@@](C)(c2ccc(Cl)cc2)N1C(=O)N1CCN(CCCS(C)(=O)=O)CC1 [RO5045337] | 4.15 µM | > 10 µM |  | 
6.39 µM | 1.56 µM |  | CC(C)N(CCCNC(=O)Nc1ccc(C(C)(C)C)cc1)C[C@H]1O[C@@H](n2cc(Br)c3c(N)ncnc32)[C@H](O)[C@@H]1O [SGC0946] | > 10 µM | 0.51 µM |  | 
> 10 µM | > 10 µM |  | CC(C)(C(=O)NCC(F)(F)C(F)(F)F)C(=O)N[C@@H]1C(=O)Nc2ccccc2-c2ccccc21 [RO4929097] | > 10 µM | > 10 µM |  | 
